Data: ChEMBL document CHEMBL1138792, “Successful virtual screening for a submicromolar antagonist of the neurokinin-1 receptor based on a ligand-supported homology model” (J Med Chem, 2004)

Target: Substance-P receptor (Homo sapiens, UniProt P25103)
Test: Inhibition of substance P binding to Tachykinin receptor 1 in Chinese hamster ovary cells
Type: cell-based

Sequence of Substance-P receptor (P25103 whole entry): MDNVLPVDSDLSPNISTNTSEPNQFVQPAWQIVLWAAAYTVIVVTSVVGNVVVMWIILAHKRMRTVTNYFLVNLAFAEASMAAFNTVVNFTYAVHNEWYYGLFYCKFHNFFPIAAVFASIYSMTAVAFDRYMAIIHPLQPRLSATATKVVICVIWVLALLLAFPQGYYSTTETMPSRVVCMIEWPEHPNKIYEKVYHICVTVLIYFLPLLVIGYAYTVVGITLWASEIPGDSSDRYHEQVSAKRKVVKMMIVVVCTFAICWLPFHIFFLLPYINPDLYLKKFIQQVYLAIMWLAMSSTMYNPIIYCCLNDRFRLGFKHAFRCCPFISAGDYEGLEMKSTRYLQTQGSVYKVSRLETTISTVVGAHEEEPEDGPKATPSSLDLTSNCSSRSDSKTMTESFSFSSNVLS

| SMILES | IC50 | IC50 (ovary) |
| --- | --- | --- |
| Cc1cc(C)cc(COC(=O)[C@H](N)Cc2c[nH]c3ccccc23)c1 | 1530 nM | – |
| CC(=O)NC(Cc1c[nH]c2ccccc12)C(=O)OCc1cc(C)cc(C)c1 (centres undefined) | 67 nM | – |
| NC(=O)CNC(COCc1cc(C(F)(F)F)cc(C(F)(F)F)c1)C(c1ccccc1)c1ccccc1 (stereo in doubt; 16) | – | 0.53 nM |
| FC(F)(F)c1cc(COCC2(c3ccccc3)CCNCC2)cc(C(F)(F)F)c1 | 1 nM | – |
| NC(COCc1ccccc1)C(c1ccccc1)c1ccccc1 (centres undefined) | 400 nM | – |
| COc1ccc(-n2cnnn2)cc1CN[C@H]1CCCN[C@H]1c1ccccc1 | 0.06 nM | – |
| N[C@H](Cc1c[nH]c2ccccc12)C(=O)OCc1ccccc1 | > 10000 nM | – |
| NC(=O)CNC(COCc1cc(C(F)(F)F)cc(C(F)(F)F)c1)C(c1ccccc1)c1ccccc1 (stereo in doubt; 5) | 0.53 nM | – |
| O=C(CSc1nnc(-c2ccncc2)n1-c1ccccc1)Nc1cccc(Cl)c1 | 250 nM | – |
